What was measured:
rgRSV224 virus = test: microbe, parasite or virus in culture; assay type: cell-based; settings: human respiratory syncytial virus, 72 h; rgRSV224 virus (MOI=1), HeLa cells, GFP expression three days post-virus exposure; averaged data of several repeat experiments; read-out: RSV HELA EC50
in vitro = settings: human

With C[C@@H]1c2ccccc2CCN1C(=O)c1cc(C2CC2)c2nc(-c3ccc(N4CC[C@H](C(N)=O)C4)nc3F)cn2c1 [Compound 22, (3S)-1-(5-{8-Cyclopropyl-6-[(1R)-1-methyl-1,2,3,4-tetrahydroisoquinoline-2-carbonyl]imidazo[1,2-a]pyridin-2-yl}-6-fluoropyridin-2-yl)pyrrolidine-3-carboxamide] the EC50 (rgRSV224 virus) was 171 nM and the CC50 at 3 days (in vitro) was 37400 nM.

C[C@@H]1c2ccccc2CCN1C(=O)c1cc(C2CC2)c2nc(-c3ccc(C4C[C@@H]4C(=O)O)cc3F)cn2c1 (relative stereo) [Compound 6, Trans 2-(4-{8-Cyclopropyl-6-[(1R)-1-methyl-1,2,3,4-tetrahydroisoquinoline-2-carbonyl]imidazo[1,2-a]pyridin-2-yl}-3-fluorophenyl)cyclopropane-1-carboxylic acid] gave an EC50 (rgRSV224 virus) of 103 nM and a CC50 at 3 days (in vitro) of 56200 nM.

With Cc1c(-c2ccc(N3CC[C@H](C(N)=O)C3)cc2F)nc2c(C3CC3)cc(C(=O)N3CCc4ccccc4[C@H]3C)cn12 [Compound 21, (3S)-1-(4-{8-Cyclopropyl-3-methyl-6-[(1R)-1-methyl-1,2,3,4-tetrahydroisoquinoline-2-carbonyl]imidazo[1,2-a]pyridin-2-yl}-3-fluorophenyl)pyrrolidine-3-carboxamide] the EC50 (rgRSV224 virus) was 638 nM and the CC50 at 3 days (in vitro) was 35000 nM.

Work on C[C@@H]1c2ccccc2CCN1C(=O)c1cc(C2CC2)c2nc(-c3ccc(-n4cc(C(N)=O)cn4)cc3F)cn2c1 [Compound 26, 1-(4-{8-Cyclopropyl-6-[(1R)-1-methyl-1,2,3,4-tetrahydroisoquinoline-2-carbonyl]imidazo[1,2-a]pyridin-2-yl}-3-fluorophenyl)-1H-pyrazole-4-carboxamide] yielded an EC50 (rgRSV224 virus) of 202 nM and a CC50 at 3 days (in vitro) of 42700 nM.

With CNC(=O)[C@H]1CCN(c2ccc(-c3cn4cc(C(=O)N5CCc6sccc6[C@H]5C)cc(C5CC5)c4n3)c(F)c2)C1 (single isomer, unassigned) [Compound 14, (3S)-1-(4-{8-Cyclopropyl-6-[(4*R)-4-methyl-4,5,6,7-tetrahydro-thieno[3,2-c]pyridine-5-carbonyl]imidazo[1,2-a]pyridin-2-yl}-3-fluorophenyl)-N-methylpyrrolidine-3-carboxamide] the EC50 (rgRSV224 virus) was 84 nM and the CC50 at 3 days (in vitro) was > 100000 nM.

In the case of C[C@@H]1c2ccccc2CCN1C(=O)c1cc(C2CC2)c2nc(-c3ccc(C(N)=O)cc3F)cn2c1 [Compound 2, 4-{8-Cyclopropyl-6-[(1R)-1-methyl-1,2,3,4-tetrahydroisoquinoline-2-carbonyl]imidazo[1,2-a]pyridin-2-yl}-3-fluorobenzamide], the EC50 (rgRSV224 virus) is reported as 72 nM and the CC50 at 3 days (in vitro) is reported as 54000 nM.

With C[C@@H]1c2ccccc2CCN1C(=O)c1cc(N2CCCC2)c2nc(-c3ccc(N4CC[C@H](C(N)=O)C4)cc3F)cn2c1 [Compound 20, (3S)-1-(3-Fluoro-4-{6-[(1R)-1-methyl-1,2,3,4-tetrahydroisoquinoline-2-carbonyl]-8-(pyrrolidin-1-yl)imidazo[1,2-a]pyridin-2-yl}phenyl)pyrrolidine-3-carboxamide] the EC50 (rgRSV224 virus) was 149 nM and the CC50 at 3 days (in vitro) was > 100000 nM.

C[C@@H]1c2ccccc2CCN1C(=O)c1cc(C2CC2)c2nc(-c3ccc(C(=O)O)cc3F)cn2c1 [Compound 1, 4-{8-Cyclopropyl-6-[(1R)-1-methyl-1,2,3,4-tetrahydroisoquinoline-2-carbonyl]imidazo[1,2-a]pyridin-2-yl}-3-fluorobenzoic Acid] showed an EC50 (rgRSV224 virus) of 510 nM and a CC50 at 3 days (in vitro) of 60400 nM.

C[C@@H]1CCCCCN1C(=O)c1cc(C2CC2)c2nc(-c3ccc(N4CC[C@H](C(N)=O)C4)cc3F)cn2c1 [Compound 15, (3S)-1-(4-{8-Cyclopropyl-6-[(2R)-2-methylazepane-1-carbonyl]imidazo[1,2-a]pyridin-2-yl}-3-fluorophenyl)pyrrolidine-3-carboxamide] gave an EC50 (rgRSV224 virus) of 1070 nM and a CC50 at 3 days (in vitro) of 13200 nM.

Compound C[C@@H]1c2ccccc2CCN1C(=O)c1cc(C2CC2)c2nc(-c3ccc(NC(=O)N4CC[C@H](O)C4)cc3F)cn2c1 [Compound 4, (3S)-N-(4-{8-Cyclopropyl-6-[(1R)-1-methyl-1,2,3,4-tetrahydroisoquinoline-2-carbonyl]imidazo[1,2-a]pyridin-2-yl}-3-fluorophenyl)-3-hydroxypyrrolidine-1-carboxamide] has an EC50 (rgRSV224 virus) of 35 nM and a CC50 at 3 days (in vitro) of 51400 nM.

With C[C@@H]1c2ccccc2CCN1C(=O)c1cc(C2CC2)c2nc(-c3ccc(C4C[C@@H]4C(N)=O)cc3F)cn2c1 (relative stereo) [Compound 7, Trans 2-(4-{8-Cyclopropyl-6-[(1R)-1-methyl-1,2,3,4-tetrahydroisoquinoline-2-carbonyl]imidazo[1,2-a]pyridin-2-yl}-3-fluorophenyl)cyclopropane-1-carboxamide] the EC50 (rgRSV224 virus) was 184 nM and the CC50 at 3 days (in vitro) was 65400 nM.

For C[C@@H]1c2ccccc2CCN1C(=O)c1cc(C2CC2)c2nc(-c3ccc([C@H]4C[C@@H]4C(=O)O)cc3F)cn2n1 [Compound 32, (1S,2 S)-2-(4-{8-Cyclopropyl-6-[(1R)-1-methyl-1,2,3,4-tetrahydroisoquinoline-2-carbonyl]imidazo[1,2-b]pyridazin-2-yl}-3-fluorophenyl)cyclopropane-1-carboxylic Acid], the EC50 (rgRSV224 virus) was 10 nM and the CC50 at 3 days (in vitro) was 51500 nM.

Compound C[C@@H]1c2ccccc2CCN1C(=O)c1cc(C2CC2)c2nc(-c3ccc(N4CC[C@H](C(=O)O)C4)cc3F)cn2c1 [Compound 9, (3S)-1-(4-{8-Cyclopropyl-6-[(1R)-1-methyl-1,2,3,4-tetrahydroisoquinoline-2-carbonyl]imidazo[1,2-a]pyridin-2-yl}-3-fluorophenyl)pyrrolidine-3-carboxylic Acid] has an EC50 (rgRSV224 virus) of 45 nM and a CC50 at 3 days (in vitro) of 68400 nM.

Compound C[C@@H]1c2ccsc2CCN1C(=O)c1cc(C2CC2)c2nc(-c3ccc(N4CC[C@H](C(N)=O)C4)nc3F)cn2c1 (single isomer, unassigned) [Compound 23, (3S)-1-(5-{8-cyclopropyl-6-[(4*R)-4-methyl-4,5,6,7-tetrahydrothieno[3,2-c]pyridine-5-carbonyl]imidazo[1,2-a]pyridin-2-yl}-6-fluoropyridin-2-yl)pyrrolidine-3-carboxamide] has an EC50 (rgRSV224 virus) of 180 nM and a CC50 at 3 days (in vitro) of 34700 nM.

With CCc1cc(C(=O)N2CCc3ccccc3[C@H]2C)nn2cc(-c3ccc4c(c3F)OCC(C(N)=O)=C4)nc12 [Compound 46, (R)-7-(8-ethyl-6-(1-methyl-1,2,3,4-tetrahydroisoquinoline-2-carbonyl)imidazo[1,2-b]pyridazin-2-yl)-8-fluoro-2H-chromene-3-carboxamide] the EC50 (rgRSV224 virus) was 54 nM and the CC50 at 3 days (in vitro) was > 100000 nM.

Compound C[C@@H]1c2ccccc2CCN1C(=O)c1cc(C2CC2)c2nc(-c3ccc(/C=C/C(=O)O)cc3F)cn2c1 [Compound 31, (R),(E)-3-(4-(8-cyclopropyl-6-(1-methyl-1,2,3,4-tetrahydroisoquinoline-2-carbonyl)imidazo[1,2-a]pyridin-2-yl)-3-fluorophenyl)acrylic acid] has an EC50 (rgRSV224 virus) of 158 nM and a CC50 at 3 days (in vitro) of 49900 nM.

C[C@@H]1c2ccccc2CCN1C(=O)c1cc(C2CC2)c2cc(-c3ccc(NC(=O)N4CC[C@@H](O)C4)cc3F)cn2n1 [Compound 49, (R)-N-(4-(4-cyclopropyl-2-((R)-1-methyl-1,2,3,4-tetrahydroisoquinoline-2-carbonyl)pyrrolo[1,2-b]pyridazin-6-yl)-3-fluorophenyl)-3-hydroxypyrrolidine-1-carboxamide] gave an EC50 (rgRSV224 virus) of 48 nM and a CC50 at 3 days (in vitro) of 45500 nM.

With C[C@@H]1c2ccccc2CCN1C(=O)c1cc(C2CC2)c2nc(-c3ccc(N)cc3F)cn2c1 [Compound 3, 4-{8-Cyclopropyl-6-[(1R)-1-methyl-1,2,3,4-tetrahydroisoquinoline-2-carbonyl]imidazo[1,2-a]pyridin-2-yl}-3-fluoroaniline] the EC50 (rgRSV224 virus) was 54 nM and the CC50 at 3 days (in vitro) was 68000 nM.

C[C@@H]1c2ccccc2CCN1C(=O)c1cc(C2CC2)c2nc(-c3ccc(N4CC(O)C4)cc3F)cn2c1 [Compound 27, 1-(4-{8-Cyclopropyl-6-[(1R)-1-methyl-1,2,3,4-tetrahydroisoquinoline-2-carbonyl]imidazo[1,2-a]pyridin-2-yl}-3-fluorophenyl)azetidin-3-ol] gave an EC50 (rgRSV224 virus) of 119 nM and a CC50 at 3 days (in vitro) of 98100 nM.

For C[C@@H]1c2ccccc2CCN1C(=O)c1cc(C2CC2)c2nc(-c3ccc(N4CC[C@H](O)C4)cc3F)cn2c1 [Compound 12, (3S)-1-(4-{8-Cyclopropyl-6-[(1R)-1-methyl-1,2,3,4-tetrahydroisoquinoline-2-carbonyl]imidazo[1,2-a]pyridin-2-yl}-3-fluorophenyl)pyrrolidin-3-ol], the EC50 (rgRSV224 virus) was 169 nM and the CC50 at 3 days (in vitro) was 67700 nM.

For CCc1cc(C(=O)N2CCc3ccccc3[C@H]2C)nn2cc(-c3ccc(/C=C/C(=O)O)cc3F)nc12 [Compound 36, (R,E)-3-(4-(8-ethyl-6-(1-methyl-1,2,3,4-tetrahydroisoquinoline-2-carbonyl)imidazo[1,2-b]pyridazin-2-yl)-3-fluorophenyl)acrylic Acid], the EC50 (rgRSV224 virus) was 39 nM and the CC50 at 3 days (in vitro) was 17200 nM.

Work on C[C@@H]1c2ccccc2CCN1C(=O)c1cc(-c2cccnc2)c2nc(-c3ccc(N4CC[C@H](C(N)=O)C4)cc3F)cn2c1 [Compound 17, (3S)-1-(3-Fluoro-4-{6-[(1R)-1-methyl-1,2,3,4-tetrahydroisoquinoline-2-carbonyl]-8-(pyridin-3-yl)imidazo[1,2-a]pyridin-2-yl}phenyl)pyrrolidine-3-carboxamide] yielded an EC50 (rgRSV224 virus) of 163 nM and a CC50 at 3 days (in vitro) of 44300 nM.

C[C@@H]1c2ccccc2CCN1C(=O)c1cc(-c2ccccc2)c2nc(-c3ccc(N4CC[C@H](C(N)=O)C4)cc3F)cn2c1 [Compound 16, (3S)-1-(3-Fluoro-4-{6-[(1R)-1-methyl-1,2,3,4-tetrahydroisoquinoline-2-carbonyl]-8-phenylimidazo[1,2-a]pyridin-2-yl}phenyl)pyrrolidine-3-carboxamide] gave an EC50 (rgRSV224 virus) of 186 nM and a CC50 at 3 days (in vitro) of 93600 nM.

Compound CCc1cc(C(=O)N2CCc3ccc(F)cc3C2C)nn2cc(-c3ccc(NC(=O)N4CC[C@@H](O)C4)cc3F)nc12 (single isomer, unassigned) [Compound 41, (R)-N-(4-(8-ethyl-6-((R*)-7-fluoro-1-methyl-1,2,3,4-tetrahydroisoquinoline-2-carbonyl)-imidazo[1,2-b]pyridazin-2-yl)-3-fluorophenyl)-3-hydroxypyrrolidine-1-carboxamide] has an EC50 (rgRSV224 virus) of 26 nM and a CC50 at 3 days (in vitro) of 26800 nM.

From patent US20220033396A1, “FURTHER HETEROAROMATIC COMPOUNDS HAVING ACTIVITY AGAINST RSV” (priority 2018, published 2022)
